Data taken from patent publication US12058988B2, “Warm water immersion-based hatching method of silkworm eggs” (Sericulture and Agri-Food Research Institute, Guangdong …, priority 2021, dated 2024).
Read-outs that look alike come from different tables or passages of the source.

What was measured:
silkworm eggs [1] = conditions: cited from earlier work; for hatching rate: silkworm eggs 20 h after oviposition, 15% acid treatment (Manqiao Jiang et al.)
[2] = tested on: silkworm eggs of a "Liangguang 2" quaternary hybrid; experiment: Feeding results of larvae after treating silkworm eggs by warm water hatching and hydrochloric acid hatching; format: in vivo, Bombyx mori; conditions: eggs treated 18 h after laying, larvae fed after hatching
Description: 18 h after laying eggs, silkworm eggs of a “Liangguang 2” quaternary hybrid were treated in a hydrochloric acid solution (at a specific gravity of 1.075, 46° C.) for 5 min, followed by taking out for air-drying, incubation and hatching. Statistics was conducted on cocooning rate, whole cocoon weight, cocoon shell weight, cocoon shell rate and 10,000-silkworm cocoon weight.
18 h after laying eggs, silkworm eggs of a “Liangguang 2” quaternary hybrid were treated in a 50° C. warm aqueous solution (containing 0.2 g/L of chitosan, 0.1 g/L of hydroxypropyl cellulose and 0.1 g/L of γ-aminobutyric acid) for 20 s, followed by taking out for air-drying, incubation and hatching. Statistics was conducted on cocooning rate, whole cocoon weight, cocoon shell weight, cocoon shell rate and 10,000-silkworm cocoon weight.

silkworm eggs [3] = experiment: Practical hatching rate of silkworm eggs after immersion treatment; format: in vivo, Bombyx mori; conditions: "Liangguang 2" quaternary hybrid, 18 h after laying, specific gravity 1.075, 46° C. for 5 min
Description: After laying eggs, “Liangguang 2” silkworm eggs were placed at 25° C.±1° C. and a humidity of 80%±5% for protection; the silkworm eggs with egg ages of 11 h, 13 h, 15 h, 17 h, 19 h, 21 h and 23 h were placed in an aqueous solution (containing 0.2 g/L of chitosan, 0.1 g/L of hydroxypropyl cellulose and 0.1 g/L of γ-aminobutyric acid) and then treated at 50° C. for 15 s, followed by taking out and air-drying for 25 min; and the silkworm eggs were subjected to incubation and hatching, wherein 3 replicates were set for each treatment. A practical hatching rate was calculated according to formula I, and an egg age-practical hatching rate curve was drawn. Practical hatching rate (%)=number of newly-hatched silkworms in two days/the total number of good eggs×100% formula I
17 h after laying eggs, silkworm eggs of a “Liangguang 2” quaternary hybrid were treated in a 50° C. aqueous solution (containing 0.1 g/L of chitosan, 0.2 g/L of hydroxypropyl cellulose and 0.05 g/L of γ-aminobutyric acid) for 20 s, followed by taking out for air-drying, incubation and hatching.
A practical hatching rate was counted. […]

For `CC(=O)O` [acetic acid], the hatching rate (silkworm eggs [1]) is listed as “relatively low hatching rate”.

For `C[S+](C)[O-]` [dimethyl sulfoxide], the “effect of preventing diapause” value (silkworm eggs [1]; Yamamoto et al.) is listed as 78%.

With `Cl` [hydrochloric acid] the “10,000-silkworm cocoon weight” value [2] was 13.05 kg, the Cocoon shell rate [2] was 19.42% and the Cocoon shell weight [2] was 0.26 g. For the same compound, the Cocooning rate [2] was 96.27%, the Whole cocoon weight [2] was 1.35 g and the hatching rate (silkworm eggs [3]) was 95.86%.

In the case of `O=[N+]([O-])O` [nitric acid], the hatching rate (silkworm eggs [1]) is given as “not less than 95%”.

For `O=P(O)(O)O` [phosphoric acid], the hatching rate (silkworm eggs [1]) is given as “relatively low hatching rate”.
